pEC50: −log10 of the molar value. Like-named read-outs stand apart in the source and are kept apart here. Starred links: 1 amine or outer side, 2 acyl side, 3 side chain; linkers in the order of their positions; H or OH if unused. Non-standard residues stand in square brackets, D forms with d. Residues, ends and D or L forms follow the SMILES beside them. *: point of attachment. X1 = Cc1cc(F)cc(-c2cnc(NCCNC(=O)CCOCCC(=O)*)c(-c3nc4ccc(Cl)cc4[nH]3)c2N2CCC(N)CC2)c1; X3 = Cc1cc(F)cc(-c2cnc(NCCN*)c(-c3nc4ccc(Cl)cc4[nH]3)c2N2CCC(N)CC2)c1; Dolaproine = CO[C@@H]([C@@H]1CCCN1)[C@@H](C)C(=O)O; Dil = CC[C@H](C)[C@H](NC)[C@@H](CC(=O)O)OC; PABC = O=C(OCc1ccc(N[*:1])cc1)[*:2]; Glutaryl = O=C(CCCC(=O)[*:2])[*:1]; X2 = C[C@@H](N*)[C@@H](O)c1ccccc1; Cya = N[C@@H](CS(=O)(=O)O)C(=O)O; Cit = NC(=O)NCCC[C@H](N)C(=O)O; NMeV = CN[C@H](C(=O)O)C(C)C; Sar = CNCC(=O)O
Columns and labels:
Assay type in all cases: cell-based
[1] = molecular target: T1, human somatostatin receptor subtype 2 (Homo sapiens, UniProt P30874); experiment: Functional cAMP assay for SSTR2 agonists (HTRF) in CHO-K1 cells; settings: CHO-K1 cells stably expressing human SST2, 20 min; for pEC50: read-out: hSST2 cAMP Avg EC50
T1 construct: expressed in transfected cells
Procedure, shortened: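 CHO-K1 cells stably expressing receptor, plated 4 days before assay, treated 20 min at 37° C. with compound (typically 0-10,000 nM final) plus IBMX and 1.6 μM NKH477 to raise cAMP. HTRF read, 665/620 nm ratio; cAMP from standard curve, EC50 fitted.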

SST2 = molecular target: T2, SST2 (Homo sapiens, UniProt P30874); experiment: PathHunter CHO-K1 SST2 internalization assay; settings: PathHunter CHO-K1 SST2, 90 min; for pEC50: read-out: Internalization EC50
T2 construct: host or cells: PathHunter CHO-K1 SST2 cells
Procedure, shortened: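 PathHunter CHO-K1 SST2 cells, seeded and grown 48 h, were exposed to 11-point 1:3 dilutions of SMDC (top final 10 uM) for 90 min at 37 C, 5% CO2. Beta-Glo luminescence was read after 60 min at room temperature. Background-corrected duplicate means were fitted by four-parameter nonlinear regression to give IC50.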

[2] = test system: NCI-H524 (ATCC) human small cell lung cancer cells
Procedure, shortened: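 NCI-H524 cells (5,000/well) were exposed 24 h after plating to SMDC for 2 h, 11-point two-fold series from 1 uM. After washout they grew a further 70 h. Proliferation was read by CellTiter-Glo luminescence, % inhibition taken vs untreated control, and IC50 fitted by four-parameter nonlinear regression.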

T1 sequence (P30874 whole entry): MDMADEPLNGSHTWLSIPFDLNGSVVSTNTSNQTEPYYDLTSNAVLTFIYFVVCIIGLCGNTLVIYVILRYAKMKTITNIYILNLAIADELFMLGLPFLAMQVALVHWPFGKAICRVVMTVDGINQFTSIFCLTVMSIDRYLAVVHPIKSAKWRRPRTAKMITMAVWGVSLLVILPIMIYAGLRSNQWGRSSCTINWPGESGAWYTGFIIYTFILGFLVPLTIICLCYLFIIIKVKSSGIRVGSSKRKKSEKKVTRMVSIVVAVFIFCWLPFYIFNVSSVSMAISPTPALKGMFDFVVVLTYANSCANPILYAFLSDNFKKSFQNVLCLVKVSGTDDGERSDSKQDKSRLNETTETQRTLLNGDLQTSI
T2 sequence (P30874 whole entry): as above

Compound | pEC50 [1] | pEC50 (SST2) | pEC50 ([2]; 2 h) | EC50 ([1]; hSST2 cAMP Avg EC50 (nM)) | EC50 (SST2; Internalization EC50 (nM)) | pEC50 ([2]; 2 h treatment, washout, additional 70 h, read-out: H524 EC50)
CC[C@H](C)[C@@H]([C@@H](CC(=O)N1CCC[C@H]1[C@H](OC)[C@@H](C)C(=O)N[C@H](C)[C@@H](O)c1ccccc1)OC)N(C)C(=O)[C@@H](NC(=O)[C@H](C(C)C)N(C)C(=O)OCc1ccc(NC(=O)[C@H](CCCNC(N)=O)NC(=O)[C@@H](NC(=O)[C@H](CS(=O)(=O)O)NC(=O)[C@@H](CCC(=O)O)NC(=O)CCOCCC(=O)NCCNc2ncc(-c3cc(C)cc(F)c3)c(N3CCC(N)CC3)c2-c2nc3ccc(Cl)cc3[nH]2)C(C)C)cc1)C(C)C [Compound 106] (X1-[dE][Cya]V[Cit][PABC][NMeV]V[Dil][Dolaproine]-X2) | 9.60 | 7.80 | 6.34 |  |  | 
CCC(C)C(C(CC(=O)N1CCCC1C(OC)C(C)C(=O)NC(C)C(O)c1ccccc1)OC)N(C)C(=O)C(NC(=O)C(C(C)C)N(C)C(=O)OCc1ccc(NC(=O)[C@H](CCCNC(N)=O)NC(=O)[C@@H](NC(=O)CCOCCOCCOCCOCCOCCOCCOCCOCCC(=O)NCCNc2ncc(-c3cc(C)cc(F)c3)c(N3CCC(N)CC3)c2-c2nc3ccc(Cl)cc3[nH]2)C(C)C)cc1)C(C)C (stereo in doubt) [Compound 27] | 9.70 | 7.56 | 7.18 |  |  | 
CC[C@H](C)[C@@H]([C@@H](CC(=O)N1CCC[C@H]1[C@H](OC)[C@@H](C)C(=O)N[C@H](C)[C@@H](O)c1ccccc1)OC)N(C)C(=O)[C@@H](NC(=O)[C@H](C(C)C)N(C)C(=O)OCc1ccc(NC(=O)[C@H](CCCNC(N)=O)NC(=O)[C@@H](NC(=O)[C@H](CCC(=O)O)NC(=O)[C@H](CS(=O)(=O)O)NC(=O)CCOCCC(=O)NCCNc2ncc(-c3cc(C)cc(F)c3)c(N3CCC(N)CC3)c2-c2nc3ccc(Cl)cc3[nH]2)C(C)C)cc1)C(C)C [Compound 113] (X1-[Cya]EV[Cit][PABC][NMeV]V[Dil][Dolaproine]-X2) | 9.48 | 7.52 | 6.70 |  |  | 
CC[C@@]1(O)C(=O)OCc2c1cc1n(c2=O)Cc2c-1nc1cc(F)c(C)c3c1c2[C@@H](NC(=O)OCc1ccc(NC(=O)[C@H](CCCNC(N)=O)NC(=O)[C@@H](NC(=O)CN2CCN(CC(=O)O)CCN(CC(=O)NCCOCCOCCOCCOCCC(=O)NCCNc4ncc(-c5cc(C)cc(F)c5)c(N5CCC(N)CC5)c4-c4nc5ccc(Cl)cc5[nH]4)CC2)C(C)C)cc1)CC3 [Compound 93] |  |  |  | 0.48 nM | 4.5 nM | 6.89
CC[C@H](C)[C@@H]([C@@H](CC(=O)N1CCC[C@H]1[C@H](OC)[C@@H](C)C(=O)N[C@H](C)[C@@H](O)c1ccccc1)OC)N(C)C(=O)[C@@H](NC(=O)[C@H](C(C)C)N(C)C(=O)OCc1ccc(NC(=O)[C@H](C)NC(=O)[C@@H](NC(=O)[C@H](CCC(N)=O)NC(=O)CCCCCC(=O)NCCNc2ncc(-c3cc(C)cc(F)c3)c(N3CCC(N)CC3)c2-c2nc3ccc(Cl)cc3[nH]2)C(C)C)cc1C(=O)NCCN)C(C)C [Compound 121] | 9.35 | 8.52 | 9.21 |  |  | 
CC[C@H](C)[C@@H]([C@@H](CC(=O)N1CCC[C@H]1[C@H](OC)[C@@H](C)C(=O)N[C@H](C)[C@@H](O)c1ccccc1)OC)N(C)C(=O)[C@@H](NC(=O)[C@H](C(C)C)N(C)C(=O)OCc1ccc(NC(=O)[C@H](CCCNC(N)=O)NC(=O)[C@@H](NC(=O)[C@@H](CCC(=O)O)NC(=O)CCOCCC(=O)NCCNc2ncc(-c3cc(C)cc(F)c3)c(N3CCC(N)CC3)c2-c2nc3ccc(Cl)cc3[nH]2)C(C)C)cc1C(=O)NCCN)C(C)C [Compound 101] | 9.66 | 8.17 | 7.47 |  |  | 
CC[C@H](C)[C@@H]([C@@H](CC(=O)N1CCC[C@H]1[C@H](OC)[C@@H](C)C(=O)N[C@H](C)[C@@H](O)c1ccccc1)OC)N(C)C(=O)[C@@H](NC(=O)[C@H](C(C)C)N(C)C(=O)OCc1ccc(NC(=O)[C@H](CCCNC(N)=O)NC(=O)[C@@H](NC(=O)[C@H](CCC(=O)O)NC(=O)CCOCCC(=O)NCCNc2ncc(-c3cc(C)cc(F)c3)c(N3CCC(N)CC3)c2-c2nc3ccc(Cl)cc3[nH]2)C(C)C)cc1C(=O)NC)C(C)C [Compound 51] | 9.66 | 8.20 | 6.89 |  |  | 
CC[C@H](C)[C@@H]([C@@H](CC(=O)N1CCC[C@H]1[C@H](OC)[C@@H](C)C(=O)N[C@H](C)[C@@H](O)c1ccccc1)OC)N(C)C(=O)[C@@H](NC(=O)[C@H](C(C)C)N(C)C(=O)OCc1ccc(NC(=O)[C@H](CCCNC(N)=O)NC(=O)[C@@H](NC(=O)CN2CCN(CC(=O)O)CCN(CC(=O)NCCOCCC(=O)NCCNc3ncc(-c4cc(C)cc(F)c4)c(N4CCC(N)CC4)c3-c3nc4ccc(Cl)cc4[nH]3)CC2)C(C)C)cc1)C(C)C [Compound 55] | 9.77 | 8.08 | 7.46 |  |  | 
CC[C@H](C)[C@@H]([C@@H](CC(=O)N1CCC[C@H]1[C@H](OC)[C@@H](C)C(=O)N[C@H](C)[C@@H](O)c1ccccc1)OC)N(C)C(=O)[C@@H](NC(=O)[C@H](C(C)C)N(C)C(=O)OCc1ccc(NC(=O)[C@H](CCCNC(N)=O)NC(=O)[C@@H](NC(=O)CCOCCNCCNc2ncc(-c3cc(C)cc(F)c3)c(N3CCC(N)CC3)c2-c2nc3ccc(Cl)cc3[nH]2)C(C)C)c(O[C@@H]2O[C@H](C(=O)O)[C@@H](O)[C@H](O)[C@H]2O)c1)C(C)C [Compound 128] | 9.74 | 8.06 | 7.51 |  |  | 
CC[C@H](C)[C@@H]([C@@H](CC(=O)N1CCC[C@H]1[C@H](OC)[C@@H](C)C(=O)N[C@H](C)[C@@H](O)c1ccccc1)OC)N(C)C(=O)[C@@H](NC(=O)[C@H](C(C)C)N(C)C(=O)OCc1ccc(NC(=O)[C@H](CCCNC(N)=O)NC(=O)[C@@H](NC(=O)CCOCCOCCOCCOCCC(=O)NCCNc2ncc(-c3cc(C)cc(F)c3)c(N3CCC(N)CC3)c2-c2nc3ccc(Cl)cc3[nH]2)C(C)C)cc1C(=O)NCCN)C(C)C [Compound 50] | 9.82 | 8.11 | 8.24 |  |  | 
CC[C@H](C)[C@@H]([C@@H](CC(=O)N1CCC[C@H]1[C@H](OC)[C@@H](C)C(=O)N[C@H](C)[C@@H](O)c1ccccc1)OC)N(C)C(=O)[C@@H](NC(=O)[C@H](C(C)C)N(C)C(=O)OCc1ccc(NC(=O)[C@H](CCCNC(N)=O)NC(=O)[C@@H](NC(=O)[C@H](CCC(=O)O)NC(=O)[C@H](CCC(=O)O)NC(=O)CCOCCC(=O)NCCNc2ncc(-c3cc(C)cc(F)c3)c(N3CCC(N)CC3)c2-c2nc3ccc(Cl)cc3[nH]2)C(C)C)cc1)C(C)C [Compound 98] (X1-EEV[Cit][PABC][NMeV]V[Dil][Dolaproine]-X2) | 9.60 | 8.54 | 6.92 |  |  | 
CC[C@H](C)[C@@H]([C@@H](CC(=O)N1CCC[C@H]1[C@H](OC)[C@@H](C)C(=O)N[C@H](C)[C@@H](O)c1ccccc1)OC)N(C)C(=O)[C@@H](NC(=O)[C@H](C(C)C)N(C)C(=O)OCc1ccc(NC(=O)CCOCCOCCOCCOCCC(=O)NCCNc2ncc(-c3cc(C)cc(F)c3)c(N3CCC(N)CC3)c2-c2nc3ccc(Cl)cc3[nH]2)c(O[C@@H]2O[C@H](C(=O)O)[C@@H](O)[C@H](O)[C@H]2O)c1)C(C)C [Compound 64] | 10.00 | 7.92 | 5.02 |  |  | 
CC[C@H](C)[C@@H]([C@@H](CC(=O)N1CCC[C@H]1[C@H](OC)[C@@H](C)C(=O)N[C@H](C)[C@@H](O)c1ccccc1)OC)N(C)C(=O)[C@@H](NC(=O)[C@H](C(C)C)N(C)C(=O)OCc1ccc(NC(=O)[C@H](CCCNC(N)=O)NC(=O)[C@@H](NC(=O)CCCC(=O)N(C)CC(=O)N(C)CC(=O)N(C)CC(=O)NCCNc2ncc(-c3cc(C)cc(F)c3)c(N3CCC(N)CC3)c2-c2nc3ccc(Cl)cc3[nH]2)C(C)C)cc1)C(C)C [Compound 96] ({X3-Sar-Sar-Sar-Glutaryl}-V[Cit][PABC][NMeV]V[Dil][Dolaproine]-X2) | 9.33 | 8.31 | 7.68 |  |  | 

Reference: US12134610B2, “Somatostatin subtype-2 receptor (SST2R) targeted therapeutics and uses thereof” (priority 2022, dated 2024)
